Experimental findings from patent publication US9073918B2, “Pyrazolo[4,3-b]pyridine-7-amine inhibitors of ALK5” (Takeda Pharmaceutical Company Limited, priority 2010, dated 2015) are described below.

The target of one assay is T1, cellular TGF-β R1 ALK5 (Homo sapiens, UniProt P36897).
T1 construct: host or cells: CellSensor SBE-bla HEK 293T
T1 sequence (P36897 34-503): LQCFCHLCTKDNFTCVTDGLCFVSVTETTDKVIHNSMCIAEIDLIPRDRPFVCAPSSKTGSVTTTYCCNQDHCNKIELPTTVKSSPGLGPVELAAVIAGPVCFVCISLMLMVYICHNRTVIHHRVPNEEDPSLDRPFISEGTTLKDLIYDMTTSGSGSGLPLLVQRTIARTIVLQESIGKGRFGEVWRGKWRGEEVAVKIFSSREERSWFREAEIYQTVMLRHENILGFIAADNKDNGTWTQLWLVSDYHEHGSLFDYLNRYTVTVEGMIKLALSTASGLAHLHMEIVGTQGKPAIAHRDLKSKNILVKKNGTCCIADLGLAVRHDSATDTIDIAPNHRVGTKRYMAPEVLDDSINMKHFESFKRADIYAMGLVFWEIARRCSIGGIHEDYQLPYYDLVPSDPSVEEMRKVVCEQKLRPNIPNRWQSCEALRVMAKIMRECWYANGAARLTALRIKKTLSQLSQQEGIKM
The experiment in a line: Cellular inhibition of ALK5 (CellSensor SBE-bla HEK 293T beta-lactamase reporter). Conditions: cellular inhibition of ALK5, SBE-bla HEK 293T cells, TGFb-1 stimulated 5 hours; average where measured in multiple experiments. It is filed as cell-based. The text has this: Test compounds were screened for cellular TGF-β R1 ALK5 inhibition by use of a CellSensor® SBE-bla HEK 293T (K1550, Invitrogen Corp. Madison, Wis.) cell line. The CellSensor® SBE-bla HEK 293T cell line contains a beta-lactamase reporter gene under control of the SBE response element stably integrated into HEK 293T cells. The SBE response element is a DNA region that binds activated SMADs which results from the binding of TGF-β to, and subsequent activation of ALK5.
The assay procedure was as follows:
CellSensor® SBE-bla HEK 293T cell line were plated at 12,000 cells/well in 40 ul DMEM plus 5 ug/ml blasticidin into 384-well, black-wall, clear-bottom assay plate and incubated overnight.
The following day 5 uL of 10×, 2.5-fold serially diluted test compounds in DMSO were added into cells to a final compound concentration of 1× and DMSO concentration of 0.5%. Assay was incubated for 1 hour at 37° C., 5% CO2, 5 uL of 100 ng/mL TGFb-1 was then added to activate ALK5 and incubated for 5 hours at 37° C., 5% CO2, 10 uL of detector, LiveBLAzer FRET B/G substrate (CCF4-AM, Invitrogen Corp. Madison, Wis.) was added to cells and incubated for 2 hours at RT. Assay was measured using Spectramax, a bottom-read fluorescence plate reader, at excitation setting of 405 nm and emission settings of 460 nm and 530 nm.
Response is defined as the ratio of background corrected 460 nm emission values/background corrected 530 nm emission values. Cellular activity was defined as percent inhibition of uninhibited ALK5 activity (wells treated with DMSO+TGF-β). The percent inhibition of cellular ALK5 at a given compound concentration is defined as: 100%×[1−(response compound+TGF-β/response DMSO+TGF-β)] where response compound+TGF-β is defined as the activity in the presence of test compound and response DMSO+TGF-β is defined as the uninhibited cellular ALK5 activity. The pIC50 value (negative log of the molar concentration of the compound that produces 50% inhibition) of a test compound is calculated by non-linear least squares curve fitting. pIC50 values, the negative of the log of the IC50, are calculated by non-linear curve fitting of the compound concentrations and percent of inhibition to the standard pIC50 equation.
Where inhibition was measured in multiple experiments the value in Table 2 is an average. N.T. means not tested.

The next assay deals with T2, TGF-β R1 ALK5 (Homo sapiens, UniProt P36897).
T2 construct: purchased Invitrogen PV5837
T2 sequence (P36897 34-503): T1 sequence (P36897 34-503)
As to the kind of experiment: In vitro inhibition of ALK5 (LanthaScreen activity assay, TR-FRET). It is filed as biochemical. How it is done: Test compounds were screened for TGF-β R1 ALK5 inhibition by use of a LanthaScreen™ activity assay (PV5837 Invitrogen, Invitrogen Corp. Madison, Wis.).
In brief, the assay procedure was as follows:
Solutions of test compounds were prepared in DMSO and diluted two-fold serially.
Assays were incubated for 90 minutes at room temperature and then quenched by the addition of 60 mM EDTA and 8 nM Terbium labeled anti-pSMAD3 Antibody (M4337 from Invitrogen) giving a final concentration of 15 mM EDTA and 2 nM Terbium labeled anti-pSMAD3 Antibody. Phosphorylated peptide product was quantified by measuring an increase in TR-FRET on a BMG LABTECH PHERA star plus. Response is defined as the ratio of Channel A/Channel B. The response of a blank (uninhibited) using vehicle alone is also determined. Enzyme activity was defined as the response of uninhibited enzyme activity minus the response of assays containing no enzyme. The percent inhibition of ALK5 at a given compound concentration is defined as: 100%×[1−(response compound/response blank)]
where response compound is defined as the enzyme activity in the presence of test compound and response blank is defined as the uninhibited enzyme activity. The pIC50 value (negative log of the molar concentration of the compound that produces 50% inhibition) of a test compound is calculated by non-linear least squares curve fitting of the equation: Percent Inhibition=100%/(1+(10−pIC50/10 log [I])).
Where inhibition was measured in multiple experiments the value in Table 1 is an average. N.T. means not tested.
(In general: Time-resolved FRET reads energy transfer from a long-lived donor to a nearby acceptor.)

The term IC50 denotes the concentration at which inhibition is half-maximal. With `CCNC(=O)n1ncc2nccc(Nc3cc(-c4cc(F)ccc4F)ncc3C)c21` [Example 109, 7-(2-(2,5-difluorophenyl)-5-methylpyridin-4-ylamino)-N-ethyl-1H-pyrazolo[4,3-b]pyridine-1-carboxamide], the IC50 was 0.02 µM on cellular TGF-β R1 ALK5 and 0.00158 µM against TGF-β R1 ALK5.
For `CCn1cc2ncc(F)c(Nc3cc(-c4nc(C)ccc4F)ncc3C)c2n1` [Example 138, 2-ethyl-6-fluoro-N-(3′-fluoro-5,6′-dimethyl-2,2′-bipyridin-4-yl)-2H-pyrazolo[4,3-b]pyridin-7-amine], the IC50 against cellular TGF-β R1 ALK5 is 0.0158 µM; on TGF-β R1 ALK5, 0.00794 µM.
On the same counts, the results for `Cc1ccc(F)c(-c2cc(Nc3ccnc4cnn(C)c34)ccn2)n1` [Example 65, N-(3′-fluoro-6′-methyl-2,2′-bipyridin-4-yl)-1-methyl-1H-pyrazolo[4,3-b]pyridin-7-amine] are 0.126 µM and 0.1 µM.
For `CNC(=O)n1ncc2nccc(Nc3cc(-c4cccc(C)n4)ncc3C)c21` [Example 81, 7-(5,6′-dimethyl-2,2′-bipyridin-4-ylamino)-N-methyl-1H-pyrazolo[4,3-b]pyridine-1-carboxamide] the same measures were 0.126 µM and 0.0631 µM.
Take `Cc1cccc(-c2cc(Nc3ccnc4cn[nH]c34)c(C)cn2)n1` [Example 6, N-(5,6′-dimethyl-2,2′-bipyridin-4-yl)-1H-pyrazolo[4,3-b]pyridin-7-amine]: the figures for the IC50 against cellular TGF-β R1 ALK5 and on TGF-β R1 ALK5 were 0.0251 µM and 0.00501 µM, respectively.
Turning to `Cc1cnc(-c2cc(F)ccc2F)nc1Nc1ccnc2cn[nH]c12` [Example 96, N-(2-(2,5-difluorophenyl)-5-methylpyrimidin-4-yl)-1H-pyrazolo[4,3-b]pyridin-7-amine], the IC50 is 0.0631 µM against cellular TGF-β R1 ALK5 and 0.02 µM against TGF-β R1 ALK5.
As for `NC(=O)Cn1ncc2nccc(Nc3ccnc(-c4cc(F)ccc4F)c3)c21` [Example 86, 2-(7-(2-(2,5-difluorophenyl)pyridin-4-ylamino)-1H-pyrazolo[4,3-b]pyridin-1-yl)acetamide], the values for the IC50 against cellular TGF-β R1 ALK5 and against TGF-β R1 ALK5 were 0.158 µM and 0.0501 µM, respectively.
For `Cc1cnc(-c2cc(F)ccc2F)cc1Nc1ccnc2cn(CCC(C)(C)O)nc12` [Example 142, 4-(7-(2-(2,5-difluorophenyl)-5-methylpyridin-4-ylamino)-2H-pyrazolo[4,3-b]pyridin-2-yl)-2-methylbutan-2-ol] the same measures were 0.158 µM and 0.0251 µM.
On the same counts, the results for `Cc1ccc(F)c(-c2cc(Nc3ccnc4cn(CC(O)C(F)(F)F)nc34)ccn2)n1` (stereo not drawn) [Example 112, 1,1,1-trifluoro-3-(7-(3′-fluoro-6′-methyl-2,2′-bipyridin-4-ylamino)-2H-pyrazolo[4,3-b]pyridin-2-yl)propan-2-ol] are 0.501 µM and 0.0631 µM.
On the same counts, the results for `CCNC(=O)n1ncc2nccc(Nc3cc(-c4cc(Cl)ccc4F)ncc3C)c21` [Example 53, 7-(2-(5-chloro-2-fluorophenyl)-5-methylpyridin-4-ylamino)-N-ethyl-1H-pyrazolo[4,3-b]pyridine-1-carboxamide] are 0.0501 µM and 0.0316 µM.
For `Cc1ccc(F)c(-c2cc(Nc3c(F)cnc4cnn(C[C@H](C)O)c34)ccn2)n1` [Example 100B, (S)-1-(6-fluoro-7-(3′-fluoro-6′-methyl-2,2′-bipyridin-4-ylamino)-1H-pyrazolo[4,3-b]pyridin-1-yl)propan-2-ol], the results for the IC50 against cellular TGF-β R1 ALK5 and on TGF-β R1 ALK5 were 0.251 µM and 0.0631 µM, respectively.
On the same counts, the results for `Cc1ccc(F)c(-c2cc(Nc3ccnc4cnn(CCO)c34)ccn2)n1` [Example 71, 2-(7-(3′-fluoro-6′-methyl-2,2′-bipyridin-4-ylamino)-1H-pyrazolo[4,3-b]pyridin-1-yl)ethanol] are 0.0631 µM and 0.0501 µM.
`Cc1ccc(F)c(-c2cc(Nc3c(F)cnc4cn(C[C@H](C)O)nc34)ccn2)n1` [Example 100A, (S)-1-(6-fluoro-7-(3′-fluoro-6′-methyl-2,2′-bipyridin-4-ylamino)-2H-pyrazolo[4,3-b]pyridin-2-yl)propan-2-ol]: the IC50 was 1.26 µM against cellular TGF-β R1 ALK5 and 0.398 µM at TGF-β R1 ALK5.
For `Cc1ccc(F)c(-c2cc(Nc3ccnc4cnn(C(C)C)c34)ccn2)n1` [Example 67, N-(3′-fluoro-6′-methyl-2,2′-bipyridin-4-yl)-1-isopropyl-1H-pyrazolo[4,3-b]pyridin-7-amine] the same measures were 0.126 µM and 0.126 µM.
Regarding `CCNC(=O)Cn1ncc2nccc(Nc3cc(-c4nc(C)ccc4F)ncc3C)c21` [Example 153, N-ethyl-2-(7-(3′-fluoro-5,6′-dimethyl-2,2′-bipyridin-4-ylamino)-1H-pyrazolo[4,3-b]pyridin-1-yl)acetamide], the 50% inhibitory concentration (IC50) is 0.0794 µM against cellular TGF-β R1 ALK5 and 0.00794 µM against TGF-β R1 ALK5.
For `CCn1ncc2ncc(F)c(Nc3cc(-c4nc(C)ccc4F)ncc3C)c21` [Example 139, 1-ethyl-6-fluoro-N-(3′-fluoro-5,6′-dimethyl-2,2′-bipyridin-4-yl)-1H-pyrazolo[4,3-b]pyridin-7-amine] the same measures were 0.126 µM and 0.0251 µM.
`Cc1cc(Nc2ccnc3cnn(CC(N)=O)c23)cc(-c2cc(Cl)ccc2F)n1` [Example 60A, 2-(7-(2-(5-chloro-2-fluorophenyl)-6-methylpyridin-4-ylamino)-1H-pyrazolo[4,3-b]pyridin-1-yl)acetamide]: the IC50 was 0.501 µM at cellular TGF-β R1 ALK5 and 0.0316 µM on TGF-β R1 ALK5.
On the same counts, the results for `Cc1ccc(F)c(-c2cc(Nc3ccnc4cn(CCC(C)(C)O)nc34)c(C)cn2)n1` [Example 120, 4-(7-(3′-fluoro-5,6′-dimethyl-2,2′-bipyridin-4-ylamino)-2H-pyrazolo[4,3-b]pyridin-2-yl)-2-methylbutan-2-ol] are 0.2 µM and 0.02 µM.
`OC[C@@H](O)Cn1cc2nccc(Nc3ccnc(-c4cc(Cl)ccc4F)c3)c2n1` [Example 47, (S)-3-(7-(2-(5-chloro-2-fluorophenyl)pyridin-4-ylamino)-2H-pyrazolo[4,3-b]pyridin-2-yl)propane-1,2-diol] had an IC50 on cellular TGF-β R1 ALK5 of 0.398 µM.
On TGF-β R1 ALK5, `Cc1ccc(F)c(-c2cc(Nc3ccnc4cn[nH]c34)c(C)cn2)n1` [Example 11, N-(3′-fluoro-5,6′-dimethyl-2,2′-bipyridin-4-yl)-1H-pyrazolo[4,3-b]pyridin-7-amine] had an IC50 of 0.00251 µM.
`CCS(=O)(=O)n1cc2nccc(Nc3cc(-c4cc(Cl)ccc4F)ncc3C)c2n1` [Example 56, N-(2-(5-chloro-2-fluorophenyl)-5-methylpyridin-4-yl)-2-(ethylsulfonyl)-2H-pyrazolo[4,3-b]pyridin-7-amine] had a half-inhibitory concentration (IC50) against TGF-β R1 ALK5 of 0.0126 µM.
